Literature values as cited in article PMC5963526 (Biochimica et biophysica acta, 2018).

| Compound | protection against LIRD (rats) | protection of the retina from light damage (retina) |
| --- | --- | --- |
| CC(C)(C)[N+]([O-])=Cc1ccccc1 [PBN, a-phenyl-N-tert-butylnitrone] | complete protection | – |
| CC1=C(/C=C/C(C)=C/C=C/C(C)=C\C(=O)O)C(C)(C)CCC1 [13-cis-retinoic acid] | – | protects the retina from light damage |
